Active and inactive are the calls of the source. The rule behind the calls is not given here.
Tests used:
[1] = molecular target: T1, Gastrin/cholecystokinin type B receptor (Homo sapiens, UniProt P32239); experiment: Displacement of [125I]BH-CCK-8S from human recombinant CCK2 receptor expressed in NIH3T3 cells; type: cell-based
T1 sequence (P32239 whole entry): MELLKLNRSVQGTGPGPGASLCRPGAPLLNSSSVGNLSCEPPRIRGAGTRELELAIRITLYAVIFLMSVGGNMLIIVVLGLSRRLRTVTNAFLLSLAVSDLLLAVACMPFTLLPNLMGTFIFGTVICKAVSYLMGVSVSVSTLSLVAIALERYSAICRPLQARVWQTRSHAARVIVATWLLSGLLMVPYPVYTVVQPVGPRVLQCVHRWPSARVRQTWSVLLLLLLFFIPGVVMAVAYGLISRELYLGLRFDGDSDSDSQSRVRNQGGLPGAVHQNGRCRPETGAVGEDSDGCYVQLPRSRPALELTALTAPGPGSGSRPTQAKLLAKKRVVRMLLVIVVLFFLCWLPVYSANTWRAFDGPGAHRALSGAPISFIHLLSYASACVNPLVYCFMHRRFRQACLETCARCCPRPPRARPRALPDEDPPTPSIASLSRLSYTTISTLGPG

[2] = molecular target: T2, Cholecystokinin receptor type A (Homo sapiens, UniProt P32238); experiment: Displacement of [3H]L-364718 from human recombinant CCK1 receptor expressed in CHO-K1 cells; type: cell-based
T2 sequence (P32238 whole entry): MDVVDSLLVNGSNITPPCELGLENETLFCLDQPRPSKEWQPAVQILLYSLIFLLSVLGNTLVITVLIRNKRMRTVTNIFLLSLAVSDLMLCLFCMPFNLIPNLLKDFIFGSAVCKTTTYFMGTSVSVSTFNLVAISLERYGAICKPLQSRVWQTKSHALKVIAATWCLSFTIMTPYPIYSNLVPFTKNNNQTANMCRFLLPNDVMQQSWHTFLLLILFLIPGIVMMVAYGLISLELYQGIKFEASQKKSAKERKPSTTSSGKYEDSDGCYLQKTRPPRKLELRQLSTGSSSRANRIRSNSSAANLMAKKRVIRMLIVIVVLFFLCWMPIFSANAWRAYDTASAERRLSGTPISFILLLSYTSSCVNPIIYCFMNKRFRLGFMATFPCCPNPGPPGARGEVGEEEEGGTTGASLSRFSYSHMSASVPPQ

[3] = molecular target: T3, Cholecystokinin receptor type A (Mus musculus, UniProt O08786); experiment: Binding affinity to mouse CCK1 receptor
T3 sequence (O08786 whole entry): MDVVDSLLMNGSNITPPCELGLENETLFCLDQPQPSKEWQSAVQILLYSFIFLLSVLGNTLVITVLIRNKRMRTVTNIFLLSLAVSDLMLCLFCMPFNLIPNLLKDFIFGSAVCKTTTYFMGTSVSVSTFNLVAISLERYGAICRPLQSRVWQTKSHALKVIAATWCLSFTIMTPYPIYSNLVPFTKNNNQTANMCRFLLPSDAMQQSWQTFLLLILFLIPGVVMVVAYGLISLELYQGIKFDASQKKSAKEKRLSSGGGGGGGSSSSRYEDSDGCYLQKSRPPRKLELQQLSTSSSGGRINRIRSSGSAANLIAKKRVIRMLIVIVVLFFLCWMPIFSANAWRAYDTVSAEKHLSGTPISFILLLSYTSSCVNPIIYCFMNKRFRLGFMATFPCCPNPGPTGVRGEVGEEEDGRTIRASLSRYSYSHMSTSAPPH

[4] = molecular target: T4, Gastrin/cholecystokinin type B receptor (Mus musculus, UniProt P56481); experiment: Binding affinity to mouse CCK2 receptor
T4 sequence (P56481 whole entry): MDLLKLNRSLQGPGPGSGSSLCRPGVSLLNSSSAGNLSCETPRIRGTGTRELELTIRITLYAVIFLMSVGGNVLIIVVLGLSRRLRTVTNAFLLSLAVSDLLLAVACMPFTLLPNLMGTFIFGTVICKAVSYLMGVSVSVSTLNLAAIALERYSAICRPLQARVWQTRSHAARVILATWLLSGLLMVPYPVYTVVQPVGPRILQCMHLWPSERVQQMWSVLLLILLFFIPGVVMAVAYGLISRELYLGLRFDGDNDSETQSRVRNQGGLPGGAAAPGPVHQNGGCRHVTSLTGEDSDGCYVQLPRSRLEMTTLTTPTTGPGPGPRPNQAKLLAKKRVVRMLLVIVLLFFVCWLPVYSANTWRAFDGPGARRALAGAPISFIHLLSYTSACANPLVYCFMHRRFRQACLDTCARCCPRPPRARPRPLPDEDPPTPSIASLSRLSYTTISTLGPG

[5] = molecular target: T1, Gastrin/cholecystokinin type B receptor; experiment: Binding affinity at human CCK2 receptor
[6] = molecular target: T2, Cholecystokinin receptor type A; experiment: Binding affinity to human CCK1 receptor
[7] = molecular target: T5, Cholecystokinin receptor type A (Cavia porcellus) (UniProt Q63931); experiment: Agonist activity at CCK1 receptor assessed as stimulation of contraction in guinea pig gallbladder at 30 uM relative to CCK8; type: functional
T5 sequence (whole entry): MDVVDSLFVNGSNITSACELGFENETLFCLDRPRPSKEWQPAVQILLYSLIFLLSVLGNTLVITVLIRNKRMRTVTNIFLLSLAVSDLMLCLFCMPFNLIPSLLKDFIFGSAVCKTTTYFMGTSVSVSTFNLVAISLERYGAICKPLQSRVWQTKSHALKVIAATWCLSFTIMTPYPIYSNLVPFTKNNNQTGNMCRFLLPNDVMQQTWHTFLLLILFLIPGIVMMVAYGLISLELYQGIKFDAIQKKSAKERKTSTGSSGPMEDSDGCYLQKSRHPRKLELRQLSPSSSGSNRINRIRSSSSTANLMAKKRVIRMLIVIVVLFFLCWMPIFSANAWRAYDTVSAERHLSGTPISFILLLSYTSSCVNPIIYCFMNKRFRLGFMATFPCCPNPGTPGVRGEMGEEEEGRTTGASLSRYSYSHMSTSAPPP

[8] = molecular target: T6, Cholecystokinin receptor type A (Cavia porcellus, UniProt Q63931); experiment: (§1) Agonist activity at CCK1 receptor assessed as stimulation of contraction in guinea pig gallbladder; type: functional
T6 sequence (Q63931 whole entry): T5 sequence (whole entry)

[9] = molecular target: T7, Gastrin/cholecystokinin type B receptor (Rattus norvegicus) (UniProt P30553); experiment: Antagonist activity at CCK2 receptor in immature rat stomach assessed as pentagastrin-induced acid secretion at 1 uM; type: functional, tissue-based
T7 sequence (whole entry): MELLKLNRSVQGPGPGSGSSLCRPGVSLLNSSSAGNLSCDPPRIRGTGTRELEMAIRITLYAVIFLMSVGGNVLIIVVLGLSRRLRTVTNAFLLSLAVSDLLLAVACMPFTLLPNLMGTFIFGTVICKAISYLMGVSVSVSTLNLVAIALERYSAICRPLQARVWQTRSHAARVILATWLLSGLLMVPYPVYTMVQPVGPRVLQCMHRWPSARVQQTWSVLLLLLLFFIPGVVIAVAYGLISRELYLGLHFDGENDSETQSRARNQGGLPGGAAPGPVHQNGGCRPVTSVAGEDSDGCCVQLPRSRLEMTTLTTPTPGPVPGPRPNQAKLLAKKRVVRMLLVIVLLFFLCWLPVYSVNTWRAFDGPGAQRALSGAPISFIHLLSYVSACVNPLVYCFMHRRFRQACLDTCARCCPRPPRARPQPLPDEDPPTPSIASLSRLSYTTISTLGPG

[10] = molecular target: T5, Cholecystokinin receptor type A (Cavia porcellus); experiment: as §1; type: functional

Row | SMILES | Ki [1] [nM] | Ki [2] [nM] | further results
1 | Cc1cccc(NC(=O)NC2C(=O)N(CC(=O)N3CCCC3)c3ccccc3N(CC(=O)N3CCCC3)C2=O)c1 |  |  | IC50 [3]: 794 nM; IC50 [4]: 50.1 nM
2 | CNc1cccc(NC(=O)N[C@@H]2N=C(c3ccccn3)c3ccccc3N(CC(=O)C(C)(C)C)C2=O)c1 [NETAZEPIDE] |  |  | Ki [5]: 0.0794 nM; Ki [6]: 31.6 nM
3 | O=C(CN1C(=O)N(CC(=O)N2CCCC2)c2ccccc2N(c2ccccc2)C1=O)Nc1cccc(C(=O)O)c1 | 380 | > 10000 | 
4 | CN(c1cccc(NC(=O)CN2C(=O)N(CC(=O)C(C)(C)C)c3ccccc3N(C3CCCCC3)C2=O)c1)c1nn[nH]n1 | 4.27 | 2090 | 
5 | CC(C)(C)C(=O)CN1C(=O)N(CC(=O)Nc2cccc(C(=O)O)c2)N=C(C2CCCCC2)c2ccccc21 |  |  | Ki [5]: 1 nM; Ki [6]: 10000 nM
6 | O=C(CN1C(=O)N(CC(=O)N2CCCC2)c2ccccc2N(c2ccccc2)C1=O)Nc1ccccc1 | 1000 | > 10000 | 
7 | CC(C)N(C(=O)CN1C(=O)C(NC(=O)Nc2cccc(C(=O)O)c2)C(=O)N(c2ccccc2)c2ccccc21)c1ccccc1 (centres undefined) |  |  | Activity [7]: 102%; EC50 [8]: 39.8 nM; Ki [5]: 10 nM; Ki [6]: 126 nM
8 | CC(C)N(C(=O)CN1C(=O)C(CC(=O)Nc2ccccc2)C(=O)N(c2ccccc2)c2ccccc21)c1ccccc1 (centres undefined) |  |  | Activity [7]: 50%; EC50 [8]: 398 nM; Ki [5]: 794 nM; Ki [6]: 158 nM
9 | Cc1cccc(NC(=O)CN2C(=O)N(CC(=O)N3CCCC3)c3ccccc3N(C3CCCCCC3)C2=O)c1 | 23.4 | 617 | Activity [9]: inactive
10 | CC(C)N(C(=O)CN1C(=O)C(NC(=O)Nc2ccccc2)C(=O)N(c2ccccc2)c2ccccc21)c1ccccc1 (centres undefined) |  |  | Activity [7]: 86%
11 | CN(C(=O)CN1C(=O)C(NC(=O)Nc2ccccc2)C(=O)N(c2ccccc2)c2ccccc21)c1ccccc1 (centres undefined) |  |  | Activity [7]: inactive; pKb [10]: 6.3
12 | CC(C)(C)C(=O)CN1C(=O)N(CCCC(=O)Nc2cccc(-c3nc(=O)o[nH]3)c2)C(=O)N(C2CCCCC2)c2ccccc21 | 20.9 | 72.4 | 

More lines, main results first:

Row | Ki [1] [nM] | Ki [2] [nM] | SMILES | further results
13 | 9.55 | 2340 | CNc1cccc(NC(=O)CN2C(=O)N(CC(=O)C(C)(C)C)c3ccccc3N(C3CCCCC3)C2=O)c1 | 
14 | 9.55 | 1550 | Cc1nc(-c2cccc(NC(=O)CN3C(=O)N(CC(=O)C(C)(C)C)c4ccccc4N(C4CCCCC4)C3=O)c2)cs1 | 
15 | 3.16 | 3890 | CC(C)(C)C(=O)CN1C(=O)N(CC(=O)Nc2cccc(CC(=O)O)c2)C(=O)N(C2CCCCCC2)c2ccccc21 | 
16 | 7.59 | 447 | Cc1cccc(NC(=O)CN2C(=O)N(CC(=O)C(C)(C)C)c3ccccc3N(C3CCCCCC3)C2=O)c1 | 
17 | 6.31 | 2340 | CC(C)(C)C(=O)CN1C(=O)N(CC(=O)Nc2cccc(CCC(=O)O)c2)C(=O)N(C2CCCCC2)c2ccccc21 | 
18 | 1.2 | 316 | CC(C)(C)C(=O)CN1C(=O)N(CC(=O)Nc2cccc(-c3nc(=O)o[nH]3)c2)C(=O)N(C2CCCCC2)c2ccccc21 | 
19 | 0.891 | 282 | CC(C)(C)C(=O)CN1C(=O)N(CC(=O)Nc2cccc(SCC(=O)O)c2)C(=O)N(C2CCCCCC2)c2ccccc21 | 
20 | 0.427 | 117 | CC(C)(C)C(=O)CN1C(=O)N(CC(=O)Nc2cccc(-c3nc(=O)o[nH]3)c2)C(=O)N(C2CCCCCC2)c2ccccc21 | 
